In US9096565B2, “Inhibitors of histone deacetylase” (MethylGene Inc., priority 2007, dated 2015):

molecular target: one or more of HDAC-4, HDAC-5, HDAC-6, HDAC-7, HDAC-8, HDAC-9, HDAC-10 and HDAC-11; assay: Inhibition of histone deacetylase enzymatic activity (summary statement over isoforms); assay type: biochemical; conditions: Table 3, selected examples; HDAC isoform not given
In short: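 Activity was measured as deacetylation of the fluorogenic substrate Boc-Lys(trifluoroacetyl)-AMC over 20-30 min at 37 °C, after a 5 min room-temperature preincubation of enzyme with compound. Trypsin (1 mg/mL) with a reference HDAC inhibitor ended the reaction.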

| IC50 [nM] | Compound |
| --- | --- |
| < 1000 | O=C(NO)C(c1ccccc1)c1ccc(CCCN2CCS(=O)(=O)CC2)cc1 (stereo not drawn) [Compound 5-95] |
| < 1000 | O=C(NO)C(c1ccccc1)c1ccc(OCCN2CCCC2)cc1 (stereo not drawn) [Compound 5-96, N-hydroxy-2-phenyl-2-(4-(2-(pyrrolidin-1-yl)ethoxy)phenyl)acetamide] |
| < 1000 | O=C(NO)C(c1ccccc1)c1ccc(N2CCN(S(=O)(=O)c3ccccc3)CC2)cc1 (stereo not drawn) [Compound 5-97, N-hydroxy-2-phenyl-2-(4-(4-(phenylsulfonyl)piperazin-1-yl)phenyl)acetamide] |
| 1000 to 15000 | O=CN(O)C(c1ccccc1)c1ccc(OCc2ccccc2)cc1 (stereo not drawn) [Compound 5-98, N-((4-(benzyloxy)phenyl)(phenyl)methyl)-N-hydroxyformamide] |
| < 1000 | CN1CCC(Oc2ccc(C(C(=O)NO)c3ccccc3)cc2)CC1 (stereo not drawn) [Compound 5-99, N-hydroxy-2-(4-(1-methylpiperidin-4-yloxy)phenyl)-2-phenylacetamide] |
| < 1000 | COCCN1CCN(c2ccc(C(C(=O)NO)c3ccccc3)cc2)CC1 (stereo not drawn) [Compound 5-100, N-hydroxy-2-(4-(4-(2-methoxyethyl)piperazin-1-yl)phenyl)-2-phenylacetamide] |
| < 1000 | CCN(CC)CC#Cc1ccc(C(C(=O)NO)c2ccccc2)cc1 (stereo not drawn) [Compound 5-101, 2-(4-(3-(diethylamino)prop-1-ynyl)phenyl)-N-hydroxy-2-phenylacetamide] |
| < 1000 | CCCc1ccc(C(C(=O)NO)c2ccccc2)cc1 (stereo not drawn) [Compound 5-102, N-hydroxy-2-phenyl-2-(4-propylphenyl)acetamide] |
| 1000 to 15000 | O=C(NO)C(c1ccccc1)N1CCN(c2ccccc2O)CC1 (stereo not drawn) [Compound 5-103, N-hydroxy-2-(4-(2-hydroxyphenyl)piperazin-1-yl)-2-phenylacetamide] |
| < 1000 | O=C(NO)C(c1ccc(N2CCOCC2)cc1)c1cccs1 (stereo not drawn) [Compound 5-104, N-hydroxy-2-(4-morpholinophenyl)-2-(thiophen-2-yl)acetamide] |
| < 1000 | O=C(NO)C(c1ccccc1)c1ccc(N2CCN(CC3CC3)CC2)cc1 (stereo not drawn) [Compound 5-105, 2-(4-(4-(cyclopropylmethyl)piperazin-1-yl)phenyl)-N-hydroxy-2-phenylacetamide] |
| < 1000 | O=C(NO)C(c1ccccc1)c1ccc(N2CCCC2=O)cc1 (stereo not drawn) [Compound 5-106, N-hydroxy-2-(4-(2-oxopyrrolidin-1-yl)phenyl)-2-phenylacetamide] |
| < 1000 | O=C(NO)C(c1ccccc1)c1ccc(N2Cc3ccccc3C2)cc1 (stereo not drawn) [Compound 5-107, N-hydroxy-2-(4-(isoindolin-2-yl)phenyl)-2-phenylacetamide] |
| < 1000 | Nc1ccccc1NC(=O)c1ccc(C(C(=O)NO)c2ccccc2)cc1 (stereo not drawn) [Compound 5-108, N-(2-aminophenyl)-4-(2-(hydroxyamino)-2-oxo-1-phenylethyl)benzamide] |
| < 1000 | COc1ccccc1COc1ccc(C(C(=O)NO)c2ccccc2)cc1 (stereo not drawn) [Compound 5-109, N-hydroxy-2-(4-(2-methoxybenzyloxy)phenyl)-2-phenylacetamide] |
| < 1000 | O=C(NO)C(c1ccccc1)c1ccc(N2CCCCC2=O)cc1 (stereo not drawn) [Compound 5-110, N-hydroxy-2-(4-(2-oxopiperidin-1-yl)phenyl)-2-phenylacetamide] |
| < 1000 | O=C(NO)C(c1ccccc1)c1ccc(Oc2ccccc2)cc1 (stereo not drawn) [Compound 5-111, N-hydroxy-2-(4-phenoxyphenyl)-2-phenylacetamide] |
| < 1000 | O=C(NO)C(c1ccc(N2CCOCC2)cc1)c1ccsc1 (stereo not drawn) [Compound 5-112, N-hydroxy-2-(4-morpholinophenyl)-2-(thiophen-3-yl)acetamide] |

| IC50 [nM] | Compound |
| --- | --- |
| < 1000 | COc1cccc(C(C(=O)NO)c2ccc(N3CCOCC3)cc2)c1 (stereo not drawn) [Compound 5-113, N-hydroxy-2-(3-methoxyphenyl)-2-(4-morpholinophenyl)acetamide] |
| 1000 to 15000 | O=C(NO)C(c1ccccc1)N1CCOCC1 (stereo not drawn) [Compound 5-113b, N-hydroxy-2-morpholino-2-phenylacetamide] |
| 1000 to 15000 | CCC(=O)ONC(=O)C(c1ccccc1)c1ccc(N2CCOCC2)cc1 (stereo not drawn) [Compound 5-114, 2-(4-morpholinophenyl)-2-phenyl-N-(propionyloxy)acetamide] |
| 1000 to 15000 | Cc1ccc(C(C(=O)NO)c2ccc(N3CCOCC3)cc2)cc1 (stereo not drawn) [Compound 5-115, N-hydroxy-2-(4-morpholinophenyl)-2-p-tolylacetamide] |
| < 1000 | O=C(NO)C(Sc1ccccc1)c1ccc(-c2ccncc2)cc1 (stereo not drawn) [Compound 5-116, N-hydroxy-2-(phenylthio)-2-(4-(pyridin-4-yl)phenyl)acetamide] |
| < 1000 | O=C(NO)C(c1ccc(N2CCOCC2)cc1)c1cccc(F)c1 (stereo not drawn) [Compound 5-118, 2-(3-fluorophenyl)-N-hydroxy-2-(4-morpholinophenyl)acetamide] |
| 1000 to 15000 | O=C(NO)C1(c2ccc(F)cc2)CCCCC1 [Compound 5-119, 1-(4-fluorophenyl)-N-hydroxycyclohexanecarboxamide] |
| 1000 to 15000 | O=C(NO)C1(c2ccc(F)cc2)CCCC1 [Compound 5-120, 1-(4-fluorophenyl)-N-hydroxycyclopentanecarboxamide] |
| 1000 to 15000 | CC(C)C(=O)ONC(=O)C(c1ccccc1)c1ccc(N2CCOCC2)cc1 (stereo not drawn) [Compound 5-121, N-(isobutyryloxy)-2-(4-morpholinophenyl)-2-phenylacetamide] |
| < 1000 | O=C(NO)C(c1ccc(N2CCOCC2)cc1)c1cccc2ccccc12 (stereo not drawn) [Compound 5-122, N-hydroxy-2-(4-morpholinophenyl)-2-(naphthalen-1-yl)acetamide] |
| < 1000 | O=C(NO)C(c1ccccc1)c1ccc(OC2CCN(Cc3ccccc3)CC2)cc1 (stereo not drawn) [Compound 5-123, 2-(4-(1-benzylpiperidin-4-yloxy)phenyl)-N-hydroxy-2-phenylacetamide] |
| < 1000 | Cc1cccc(C(C(=O)NO)c2ccc(N3CCOCC3)cc2)c1 (stereo not drawn) [Compound 5-125, N-hydroxy-2-(4-morpholinophenyl)-2-m-tolylacetamide] |
| 1000 to 15000 | O=C(NO)C(c1ccccc1)C1CCN(c2ncccn2)CC1 (stereo not drawn) [Compound 5-126, N-hydroxy-2-phenyl-2-(1-(pyrimidin-2-yl)piperidin-4-yl)acetamide] |
| 1000 to 15000 | O=C(NO)C(c1ccccc1)C1CCN(C(=O)c2ccccc2)CC1 (stereo not drawn) [Compound 5-127, 2-(1-benzoylpiperidin-4-yl)-N-hydroxy-2-phenylacetamide] |
| 1000 to 15000 | CCCC(=O)ONC(=O)C(c1ccccc1)c1ccc(N2CCOCC2)cc1 (stereo not drawn) [Compound 5-128, N-(butyryloxy)-2-(4-morpholinophenyl)-2-phenylacetamide] |
| 1000 to 15000 | COc1ccccc1C(C(=O)NO)c1ccc(N2CCOCC2)cc1 (stereo not drawn) [Compound 5-129, N-hydroxy-2-(2-methoxyphenyl)-2-(4-morpholinophenyl)acetamide] |
| < 1000 | O=C(NO)C(c1ccccc1)c1ccc(OC2CCN(CC3CC3)CC2)cc1 (stereo not drawn) [Compound 5-130, 2-(4-(1-(cyclopropylmethyl)piperidin-4-yloxy)phenyl)-N-hydroxy-2-phenylacetamide] |

| Compound | IC50 [nM] |
| --- | --- |
| CC(=O)ONC(=O)C(c1ccccc1)c1ccc(N2CCOCC2)cc1 (stereo not drawn) [Compound 5-117, N-acetoxy-2-(4-morpholinophenyl)-2-phenylacetamide] | 1000 to 15000 |
